Reference: publication PMC9973354 (mBio, 2022)

Legend:
PA14 = experiment: MIC assay, WT PA14; assay type: cell-based, Pseudomonas aeruginosa; conditions: WT PA14, iron-limited medium (10:90)
Experimental: (§1) MIC assays were conducted as previously described ([13], [14]). Overnight cultures were grown in LB from a glycerol stock at 37°C with shaking (200 rpm). Subcultures in 10:90 (1:100 dilution) were cultured for 4 h. Cells were adjusted to an optical density at 600 nm (OD600) of 0.1/500 in 10:90. All compounds were serially diluted 2-fold in dimethyl sulfoxide (DMSO) or H2O at 75× the final concentration. Plates were sealed to prevent evaporation and incubated at 37°C overnight in a shaking incubator (200 rpm). The next day, the OD600 was determined with a plate reader (Thermo Scientific) and normalized to percent of growth of the vehicle control after subtracting the OD600 from blank media.

PA14 ΔfpvA mutant = experiment: MIC assay, ΔfpvA mutant; assay type: cell-based, Pseudomonas aeruginosa; conditions: ΔfpvA mutant, iron-limited medium (10:90)
Experimental: as §1

PA14 ΔfpvB mutant = experiment: MIC assay, ΔfpvB mutant; assay type: cell-based, Pseudomonas aeruginosa; conditions: 10:90, growth reduced at 17 μg/mL
Experimental: as §1

PA14 ΔfpvA ΔfpvB mutant = experiment: MIC assay, ΔfpvA ΔfpvB mutant; assay type: cell-based, Pseudomonas aeruginosa; conditions: ΔfpvA ΔfpvB mutant, 10:90
Experimental: as §1

[1] = test system: PA14 ΔfpvA ΔfpvB pHERD20T-fpvA; experiment: MIC assay, ΔfpvA ΔfpvB complemented with fpvA; assay type: cell-based, Pseudomonas aeruginosa; conditions: complementation with fpvA, arabinose induction, 10:90
Experimental: (§2) The ΔfpvA ΔfpvB mutant was complemented in trans with pHERD20T-fpvA or pHERD20T-fpvB. pHERD20T is an arabinose-inducible vector with expression driven by the PBAD promoter under the control of AraC ([30]).
as §1

[2] = test system: PA14 ΔfpvA ΔfpvB pHERD20T-fpvB; experiment: MIC assay, ΔfpvA ΔfpvB complemented with fpvB; assay type: cell-based, Pseudomonas aeruginosa; conditions: complementation with fpvB, arabinose induction, 10:90; susceptibility greater than with fpvA
Experimental: as §2, §1

[3] = test system: PA14 ΔfpvA ΔfpvB ΔfiuA ΔfoxA quadruple mutant; experiment: Growth phenotypes of deletion mutants, quadruple mutant; assay type: cell-based, Pseudomonas aeruginosa; conditions: 17 μg/mL TS, 10:90
Text: PA14, ΔfpvA, ΔfpvB, and ΔfpvA ΔfpvB strains treated with TS (A) and DSX (B) in 10:90. Green indicates growth, and white indicates no growth. Growth is expressed as percent of control. The PA14 ΔfpvA ΔfpvB strain complemented with pHERD20T, fpvA, or fpvB treated with TS (C) and DSX (D) in 10:90. […] All experiments are averaged from three independent biological replicates. Blue indicates growth and white indicates no growth. (H) Summary of growth phenotypes of WT PA14 and combinations of single, double, triple, and quadruple deletion mutants in fpvA, fpvB, fiuA, and foxA. […] Green indicates growth, whereas no growth is indicated in white. […] Representative plates are shown.
If there were no transporters for a particular siderophore, the mutant would fail to grow due to iron restriction.

[4] = highest concentration tested, 10μM fluorescein-5-maleimide in PBS
Experimental: Supplementary file : FIG S4 (A) Microscopy images of the PA14 ΔfpvA ΔfpvB strain with pHERD20T, pHERD20T-fpvA, and pHERD20T-fpvB treated with Alexa Fluor 594. Representative images are shown. Scale, 5μm. (B) TS partly quenches fluorescence of fluorescein-5-maleimide in the absence of cells. Each compound at the highest concentration tested was added to 10μM of fluorescein-5-maleimide in PBS in triplicate. TS reduced fluorescence to about 80% of the control. (Excitation, 485nm; emission, 528nm). ***, P < 0.001 (Student’s t test). […] Results are averaged from three independent biological replicates. Download FIG S4, EPS file, 39.8 MB.
TS was omitted from these studies because it quenched fluorescence (~20%) of the dye in the absence of cells (Fig. S4B). In the absence of protein, none of the three siderophores quenched fluorescence of the dye at the highest concentrations tested. Quenching curves were then generated and used to calculate the dissociation constant (Kd).

[5] = test system: PA14 ΔfpvA ΔfpvB pHERD20T-fpvA T660C; experiment: MIC assay, ΔfpvA ΔfpvB expressing FpvA T660C; assay type: cell-based, Pseudomonas aeruginosa; conditions: 10:90 + 2% arabinose
Text: (§3) FpvA T660C was used previously to measure pyoverdine-Fe^3+ binding affinity ([32]). However, this technique has not been applied to FpvB. A high-confidence structural model of FpvB was generated using AlphaFold2 ([33], [34]) and aligned with the structure of FpvA (PDB accession number 2O5P) to identify a residue suitable for labeling, with the assumption that FpvA and FpvB undergo similar conformational changes upon ferrisiderophore binding (see Fig. S3A through C in the supplemental material). Based on this analysis, FpvB R648 was mutated to Cys. FpvA T660C and FpvB R648C were each expressed in trans in the ΔfpvA ΔfpvB mutant. […] We could also detect expression by fluorescence microscopy with peripheral labeling consistent with expression in the outer membrane (Fig. 3B). Labeling was undetectable in empty vector and WT controls (see Fig. S4A in the supplemental material).
(§4) Supplementary file : FIG S3 Overlay of FpvA and FpvB showing residues mutated to cysteine for labeling with maleimide dyes. FpvA (PDB accession number 2O5P) was superimposed with the AlphaFold2 model of FpvB. FpvA is shown in beige and FpvB in blue. […]
(§5) MIC assays were conducted as previously described ([13], [14]). […] The next day, the OD600 was determined with a plate reader (Thermo Scientific) and normalized to percent of growth of the vehicle control after subtracting the OD600 from blank media.

[6] = test system: PA14 ΔfpvA ΔfpvB pHERD20T-fpvB R648C; experiment: MIC assay, ΔfpvA ΔfpvB expressing FpvB R648C; assay type: cell-based, Pseudomonas aeruginosa; conditions: 10:90 + 2% arabinose
Text: as §3, §4, §5

[7] = test system: PA14 ΔfpvA ΔfpvB ΔfiuA ΔfoxA pHERD20T; experiment: Growth of quadruple mutant with empty vector; assay type: cell-based, Pseudomonas aeruginosa; conditions: 10:90 + 2% arabinose
Experimental: (§6) Site-directed mutagenesis was used to confirm the docking predictions and to define the molecular determinants for ligand uptake through FpvB (Fig. 4C). We generated 17 single amino acid substitutions in FpvB and expressed each of them in trans in the quadruple ΔfpvA ΔfpvB ΔfiuA ΔfoxA mutant. Their ability to complement growth of the mutant in the presence of ferrichrome and ferrioxamine B and to restore TS susceptibility was assessed. […] The mutant transporters were tagged with a C-terminal FLAG tag to evaluate expression levels. FLAG-tagged FpvB mutants had WT levels of expression except for Y216T and W347V, which were expressed at 140% and 25% of WT, respectively.
(§7) The ΔfpvA ΔfpvB ΔfiuA ΔfoxA mutant was complemented with WT fpvA, fpvB, fiuA, and foxA in trans as controls (Fig. 4E).
as §1, with “Plates were sealed to prevent evaporation and incubated at 37°C overnight in a shaking incubator (200 rpm).” left out

[8] = test system: PA14 ΔfpvA ΔfpvB ΔfiuA ΔfoxA pHERD20T-fpvB Y216T; experiment: Growth of quadruple mutant expressing FpvB Y216T; assay type: cell-based, Pseudomonas aeruginosa; conditions: 10:90 + 2% arabinose
Experimental: as §6, §7
as §1, with “Plates were sealed to prevent evaporation and incubated at 37°C overnight in a shaking incubator (200 rpm).” left out

[9] = test system: PA14 ΔfpvA ΔfpvB ΔfiuA ΔfoxA pHERD20T-fpvB D219A; experiment: Growth of quadruple mutant expressing FpvB D219A; assay type: cell-based, Pseudomonas aeruginosa; conditions: 10:90 + 2% arabinose
Experimental: as §6, §7
as §1, with “Plates were sealed to prevent evaporation and incubated at 37°C overnight in a shaking incubator (200 rpm).” left out

[10] = test system: PA14 ΔfpvA ΔfpvB ΔfiuA ΔfoxA pHERD20T-fpvB Y412A; experiment: Growth of quadruple mutant expressing FpvB Y412A; assay type: cell-based, Pseudomonas aeruginosa; conditions: 10:90 + 2% arabinose
Experimental: as §6, §7
as §1, with “Plates were sealed to prevent evaporation and incubated at 37°C overnight in a shaking incubator (200 rpm).” left out

[11] = Maximum soluble TS concentration; conditions: in MIC assay medium

C=C(NC(=O)C(=C)NC(=O)c1csc(C2=N[C@@H]3c4csc(n4)[C@H]4NC(=O)c5csc(n5)[C@H]([C@](C)(O)[C@@H](C)O)NC(=O)[C@H]5CSC(=N5)/C(=C/C)NC(=O)[C@H]([C@@H](C)O)NC(=O)c5csc(n5)[C@]3(CC2)NC(=O)[C@H](C)NC(=O)C(=C)NC(=O)[C@H](C)NC(=O)[C@H]([C@@H](C)CC)N[C@@H]2C=Cc3c([C@H](C)O)cc(nc3[C@H]2O)C(=O)O[C@@H]4C)n1)C(N)=O [TS, thiostrepton]
TS susceptibility (MIC assay) (PA14): susceptible | TS susceptibility (MIC assay) (PA14 ΔfpvA mutant): susceptible | TS susceptibility (MIC assay) (PA14 ΔfpvB mutant): resistant | TS susceptibility (MIC assay) (PA14 ΔfpvA ΔfpvB mutant): resistant | TS susceptibility [1]: restored TS susceptibility | TS susceptibility [2]: restored TS susceptibility | TS susceptibility [3]: resistant | dye fluorescence remaining [4]: about 80 % of the control | quenching of dye fluorescence in the absence of cells [4]: ~ 20% | increase of susceptibility to TS compared to WT FpvA [5]: 4 fold | TS susceptibility [6]: WT susceptibility | TS susceptibility [7]: resistant | TS susceptibility [8]: reduced TS susceptibility | TS susceptibility [9]: reduced TS susceptibility | TS susceptibility [10]: reduced TS susceptibility | maximum soluble concentration [11]: 17 µg/mL
